Target: T1, TXA2 receptors (Homo sapiens, UniProt P21731)
T1 construct: endogenous in cells; host or cells: human platelets
T1 sequence (P21731 1-343): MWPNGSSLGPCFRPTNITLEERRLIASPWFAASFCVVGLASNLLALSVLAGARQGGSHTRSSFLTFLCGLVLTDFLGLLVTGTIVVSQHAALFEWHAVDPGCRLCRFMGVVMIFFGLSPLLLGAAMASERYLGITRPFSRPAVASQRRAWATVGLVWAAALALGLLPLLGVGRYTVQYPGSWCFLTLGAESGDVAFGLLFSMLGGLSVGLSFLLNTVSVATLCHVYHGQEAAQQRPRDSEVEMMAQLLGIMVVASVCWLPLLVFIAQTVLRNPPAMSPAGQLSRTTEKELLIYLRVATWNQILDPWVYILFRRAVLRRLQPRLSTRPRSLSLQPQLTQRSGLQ
Assay: human platelet binding assay ([125I]PTA-OH as receptor ligand)
Conditions: 50% inhibition of specific [^125 I]PTA-OH binding, human platelets
Method: As indicated above, compounds of the formula (I) have biological activity that is indicative of an ability to antagonise TXA2 receptors.
The platelet binding assay used was essentially the method described by Mais et al. J. Pharm. Exp. Ther., 1985, 235(3), 729-734 where [^125 I]PTA-OH was used as the receptor ligand.
The IC50 values represent the concentration which produces a 50% inhibition of specific [^125 I]PTA-OH binding.
The compounds of Examples 1 and 5 were tested in the human platelet binding assay.

Row | SMILES | IC50 [µM]
1 | O=C(O)CCc1ccc(NS(=O)(=O)c2ccc(Cl)cc2)cn1 [Example 8, 3-[5-(4-Chlorobenzenesulphonamido)pyrid-2-yl]propionic acid] | 251
2 | O=C(O)CCCc1ncccc1NS(=O)(=O)c1ccccc1 [Example 4, 4-(3-Benzenesulphonamidopyrid-2-yl)butanoic acid] | 102
3 | O=C(O)CCCc1ccc(S(=O)(=O)Nc2ccc(Cl)cc2)cn1 [Example 9, 4-[5-(4-Chlorophenylsulphamoyl)pyrid-2-yl]-butanoic acid] | 21
4 | O=C(O)CCCc1ccc(S(=O)(=O)Nc2ccccc2)cn1 [Example 10, 4-[5-(Phenylsulphamoyl)pyrid-2-yl)butanoic acid] | 28
5 | O=C(O)CCCCc1ccc(NS(=O)(=O)c2ccccc2)cn1 [Example 7, 5-[5-(Benzenesulphonamido)pyrid-2-yl]pentanoic acid] | 4
6 | COc1ccc(S(=O)(=O)Nc2ccc(CCCC(=O)O)nc2)cc1 [Example 11, 4-[5-(4-Methoxybenzenesulphonamido)pyrid-2-yl]butanoic acid] | 5.2
7 | O=C(O)CCCc1ccc(NS(=O)(=O)c2cccc(C(F)(F)F)c2)cn1 [Example 12, 4-[5-(3-Trifluoromethylbenzenesulphonamido)-pyrid-2-yl]butanoic acid] | 16

Now those with a lower IC50, led by results:

Row | IC50 [µM] | SMILES
8 | 2.6 | Cc1cc(NS(=O)(=O)c2ccccc2)cnc1CCCC(=O)O [Example 3, 4-(5-Benzenesulphonamido-3-methylpyrid-2-yl)butanoic acid]
9 | 2.1 | O=C(O)CCCc1ccc(NS(=O)(=O)c2ccc(Cl)c(Cl)c2)cn1 [Example 15, 4-[5-(3,4-Dichlorobenzenesulphonamido)pyrid-2-yl]butanoic acid]
10 | 1.3 | O=C(O)CCCc1ccc(NS(=O)(=O)c2ccccc2)cn1 [Example 1, 4-(5-Benzenesulphonamidopyrid-2-yl)butanoic acid]
11 | 1.2 | O=C(O)CCCc1ccc(NS(=O)(=O)c2cccc(Cl)c2)cn1 [Example 5, 4-[5-(3-Chlorobenzenesulphonamido)pyrid-2-yl]butanoic acid]
12 | 1 | O=C(O)CCCCc1ccc(NS(=O)(=O)c2ccc(Cl)cc2)cn1 [Example 6, 5-[5-(4-Chlorobenzenesulphonamido)pyrid-2-yl]pentanoic acid]
13 | 0.6 | Cc1ccc(S(=O)(=O)Nc2ccc(CCCC(=O)O)nc2)cc1 [Example 14, 4-[5-(4-Methylbenzenesulphonamido)pyrid-2-yl]butanoic acid]
14 | 0.36 | O=C(O)CCCc1ccc(NS(=O)(=O)c2ccc(Cl)cc2)cn1 [Example 2, 4-[5-(4-Chlorobenzenesulphonamido)pyrid-2-yl]-butanoic acid]
15 | 0.2 | O=C(O)CCCc1ccc(NS(=O)(=O)c2ccc(Br)cc2)cn1 [Example 13, 4-[5-(4-Bromobenzenesulphonamido)pyrid-2-yl]butanoic acid]
